Assay results reported in ChEMBL document CHEMBL1151870, “Synthetic studies in butenonyl C-glycosides: Preparation of polyfunctional alkanonyl glycosides and their enzyme inhibitory activity” (Bioorg Med Chem Lett, 2009).

What was measured:
[1] = target: T1, Glucose-6-phosphatase catalytic subunit 1 (Rattus norvegicus) (UniProt P43428); test: Inhibition of rat liver glucose-6-phosphatase at 100 uM
T1 sequence (whole entry): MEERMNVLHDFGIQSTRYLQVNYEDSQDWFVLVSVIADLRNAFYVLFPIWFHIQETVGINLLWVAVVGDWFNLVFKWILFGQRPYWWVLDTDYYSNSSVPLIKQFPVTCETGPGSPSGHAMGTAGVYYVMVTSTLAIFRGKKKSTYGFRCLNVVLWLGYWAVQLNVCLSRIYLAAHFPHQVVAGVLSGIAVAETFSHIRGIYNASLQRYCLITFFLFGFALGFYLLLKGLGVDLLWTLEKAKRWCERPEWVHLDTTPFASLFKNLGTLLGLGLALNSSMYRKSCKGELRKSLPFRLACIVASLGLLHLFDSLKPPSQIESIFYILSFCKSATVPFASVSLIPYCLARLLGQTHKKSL

[2] = tested on: Rattus norvegicus; test: Antihyperglycemic activity against sucrose-challenged fasted Wistar rat assessed as reduction in blood glucose at 100 mg/kg, po administered 30 mins before sucrose challenge measured after 30 mins post sucrose dose relative to control; format: functional; design: scale not given: the % may be the effect or the level left
[3] = tested on: Rattus norvegicus; test: Antihyperglycemic activity against sucrose-challenged streptozotocin-induced fasted Sprague-Dawley rat assessed as reduction in hyperglycemia at 100 mg/kg, po administered 30 mins before sucrose challenge measured after 5 hrs post sucrose dose relative to control; format: functional; design: scale not given: the % may be the effect or the level left
[4] = tested on: Rattus norvegicus; test: Antihyperglycemic activity against sucrose-challenged streptozotocin-induced fasted Sprague-Dawley rat assessed as reduction in hyperglycemia at 100 mg/kg, po administered 30 mins before sucrose challenge measured after 24 hrs post sucrose dose relative to control; format: functional; design: scale not given: the % may be the effect or the level left
[5] = target: T2, Glycogen phosphorylase, liver form (Rattus norvegicus) (UniProt P09811); test: Inhibition of rat liver glycogen […] at 100 uM
T2 sequence (whole entry): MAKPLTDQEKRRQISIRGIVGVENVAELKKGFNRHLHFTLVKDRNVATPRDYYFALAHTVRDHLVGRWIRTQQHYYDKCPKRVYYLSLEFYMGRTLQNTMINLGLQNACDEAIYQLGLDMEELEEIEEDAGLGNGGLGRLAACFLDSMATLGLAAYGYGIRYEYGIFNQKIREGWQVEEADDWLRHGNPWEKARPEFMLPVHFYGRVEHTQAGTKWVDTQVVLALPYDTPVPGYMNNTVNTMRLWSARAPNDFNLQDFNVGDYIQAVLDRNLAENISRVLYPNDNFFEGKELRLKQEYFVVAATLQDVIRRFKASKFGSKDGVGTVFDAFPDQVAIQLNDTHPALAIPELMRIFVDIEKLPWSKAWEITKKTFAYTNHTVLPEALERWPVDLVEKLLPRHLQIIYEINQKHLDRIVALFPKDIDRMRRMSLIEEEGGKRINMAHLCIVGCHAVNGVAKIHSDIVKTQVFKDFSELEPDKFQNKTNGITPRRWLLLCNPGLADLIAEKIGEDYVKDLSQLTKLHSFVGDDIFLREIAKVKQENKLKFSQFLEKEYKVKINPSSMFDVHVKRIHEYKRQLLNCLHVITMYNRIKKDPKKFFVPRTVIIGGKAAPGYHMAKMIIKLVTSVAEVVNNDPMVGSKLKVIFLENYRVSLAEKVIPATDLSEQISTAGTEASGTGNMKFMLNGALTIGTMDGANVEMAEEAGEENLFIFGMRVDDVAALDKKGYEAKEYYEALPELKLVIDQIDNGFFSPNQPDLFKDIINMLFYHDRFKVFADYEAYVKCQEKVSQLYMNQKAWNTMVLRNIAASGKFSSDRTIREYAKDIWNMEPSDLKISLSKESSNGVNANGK

[6] = target: Lysosomal alpha-glucosidase (Rattus norvegicus) (UniProt Q6P7A9); test: Inhibition of rat intestinal alpha-glucosidase at 100 uM
Sequence of Lysosomal alpha-glucosidase (Rattus norvegicus) (Q6P7A9 whole entry): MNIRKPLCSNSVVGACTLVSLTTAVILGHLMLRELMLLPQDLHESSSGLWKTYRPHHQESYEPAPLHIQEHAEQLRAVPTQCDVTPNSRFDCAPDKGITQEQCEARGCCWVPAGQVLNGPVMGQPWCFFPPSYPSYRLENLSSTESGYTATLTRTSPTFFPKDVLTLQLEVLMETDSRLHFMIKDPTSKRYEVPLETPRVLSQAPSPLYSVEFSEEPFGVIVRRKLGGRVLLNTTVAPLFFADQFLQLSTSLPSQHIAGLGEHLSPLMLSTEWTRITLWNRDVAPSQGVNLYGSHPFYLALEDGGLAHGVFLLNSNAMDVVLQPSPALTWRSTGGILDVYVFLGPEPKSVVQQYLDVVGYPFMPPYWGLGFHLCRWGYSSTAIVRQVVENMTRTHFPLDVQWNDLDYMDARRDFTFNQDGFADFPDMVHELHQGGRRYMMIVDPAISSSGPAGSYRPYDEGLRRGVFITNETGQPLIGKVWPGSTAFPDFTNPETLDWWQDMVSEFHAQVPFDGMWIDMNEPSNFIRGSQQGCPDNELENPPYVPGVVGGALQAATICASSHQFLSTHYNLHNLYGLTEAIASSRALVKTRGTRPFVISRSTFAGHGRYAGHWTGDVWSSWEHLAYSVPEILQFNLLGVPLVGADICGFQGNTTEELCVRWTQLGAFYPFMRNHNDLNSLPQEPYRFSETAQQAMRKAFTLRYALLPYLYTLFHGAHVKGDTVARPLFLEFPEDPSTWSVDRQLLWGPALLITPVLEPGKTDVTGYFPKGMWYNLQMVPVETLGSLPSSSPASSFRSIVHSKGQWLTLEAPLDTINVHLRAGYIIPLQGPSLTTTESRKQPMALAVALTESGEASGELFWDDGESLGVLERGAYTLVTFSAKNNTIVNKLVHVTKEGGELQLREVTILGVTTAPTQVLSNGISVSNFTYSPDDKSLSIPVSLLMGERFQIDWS

[7] = target: T3, Glucose-6-phosphatase catalytic subunit 1 (Rattus norvegicus, UniProt P43428); test: Inhibition of rat liver glucose-6-phosphatase
T3 sequence (P43428 whole entry): T1 sequence (whole entry)

[8] = target: T4, Glycogen phosphorylase, liver form (Rattus norvegicus, UniProt P09811); test: Inhibition of rat liver glycogen […]
T4 sequence (P09811 whole entry): T2 sequence (whole entry)

SMILES: COc1ccc(/C=C/C(=O)C[C@@H]2O[C@H](CO)[C@@H](O)[C@H](O)[C@H]2O)cc1
- inhibition [1]: -9.7%

SMILES: CN(C)C(=N)NC(=N)N [METFORMIN]
- Activity [2]: 31.2%
- Activity [3]: 26.9%
- Activity [4]: 21.4%

SMILES: CCOC(=O)C(C(=O)OCC)C(CC(=O)C[C@@H]1O[C@H](CO)[C@@H](O)[C@H](O)[C@H]1O)c1ccc(Cl)cc1 (mixture of isomers)
- inhibition [5]: -5.4%
- inhibition [6]: -10%
- inhibition [1]: -6%

SMILES: O=C(/C=C/c1ccc(O)cc1)C[C@@H]1O[C@H](CO)[C@@H](O)[C@H](O)[C@H]1O
- inhibition [5]: -3.4%
- inhibition [1]: 4.2%

SMILES: O=C(/C=C/c1cccc([N+](=O)[O-])c1)C[C@@H]1O[C@H](CO)[C@@H](O)[C@H](O)[C@H]1O
- inhibition [5]: 15.6%
- inhibition [6]: -10%
- inhibition [1]: 8%

SMILES: O=C(/C=C/c1cccnc1)C[C@@H]1O[C@H](CO)[C@@H](O)[C@H](O)[C@H]1O
- inhibition [1]: -8.1%

SMILES: O=C(/C=C/c1ccc(Cl)cc1)C[C@@H]1OC[C@@H](O)[C@H](O)[C@H]1O
- inhibition [6]: -8.3%
- inhibition [1]: 4.7%

SMILES: O=C(/C=C/c1ccccc1)C[C@@H]1O[C@H](CO)[C@@H](O)[C@H](O)[C@H]1O
- inhibition [5]: 7.3%
- Activity [2]: 19.5%
- Activity [3]: 2.91%
- Activity [4]: 12.1%
- IC50 [7]: 87 µM

SMILES: COc1ccc(/C=C/C(=O)C[C@@H]2O[C@H](CO)[C@@H](O)[C@H](O)[C@H]2O)cc1OC
- inhibition [5]: -5.9%
- Activity [2]: 26.7%
- Activity [3]: 14.1%
- Activity [4]: 13.4%
- inhibition [1]: 15%

SMILES: CCOC(=O)C(C(=O)OCC)C(CC(=O)C[C@@H]1O[C@H](CO)[C@@H](O)[C@H](O)[C@H]1O)c1ccccc1 (mixture of isomers)
- inhibition [1]: -3.3%

SMILES: COc1cc(/C=C/C(=O)C[C@@H]2O[C@H](CO)[C@@H](O)[C@H](O)[C@H]2O)cc(OC)c1OC
- inhibition [1]: 4.7%

SMILES: O=C(/C=C/c1ccc(Cl)cc1)C[C@@H]1O[C@H](CO)[C@@H](O)[C@H](O)[C@H]1O
- inhibition [6]: -5.97%

SMILES: O=C(/C=C/c1ccc2ccccc2c1)C[C@@H]1O[C@H](CO)[C@@H](O)[C@H](O)[C@H]1O
- Activity [2]: 25%
- Activity [3]: 14.2%
- Activity [4]: 10.3%
- IC50 [8]: 98 µM
- inhibition [1]: -7.7%

SMILES: CCOC(=O)C(C(=O)OCC)C(CC(=O)C[C@@H]1O[C@H](CO)[C@@H](O)[C@H](O)[C@H]1O)c1ccc2ccccc2c1 (mixture of isomers)
- inhibition [5]: 14.7%
- inhibition [1]: 4.6%

SMILES: CCOC(=O)C(C(=O)OCC)C(CC(=O)C[C@@H]1O[C@H](CO)[C@@H](O)[C@H](O)[C@H]1O)c1ccc(OC)c(OC)c1 (mixture of isomers)
- inhibition [5]: 24%
- inhibition [6]: -2.3%
- inhibition [1]: 36.2%

SMILES: CCOC(=O)C(C(=O)OCC)C(CC(=O)C[C@@H]1O[C@H](CO)[C@@H](O)[C@H](O)[C@H]1O)c1cccnc1 (mixture of isomers)
- inhibition [1]: 37.6%

SMILES: O=C(/C=C/c1ccc2ccccc2c1)C[C@@H]1O[C@H](CO)[C@@H](O[C@@H]2O[C@H](CO)[C@@H](O)[C@H](O)[C@H]2O)[C@H](O)[C@H]1O
- inhibition [5]: -8.3%
- inhibition [1]: -3.9%
